Assay results as given in US20240132431A1, “METHOD FOR ALKYLATING ACIDIC FUNCTIONAL GROUP” (Chugai Seiyaku Kabushiki Kaisha, priority 2021, published 2024).

Biological target: T1, Bcl-2 protein (Recombinant Human Bcl-2 Protein) (Homo sapiens, UniProt P10415)
T1 construct: purchased Novus NBP2-34889
Assay: Binding evaluation of mixture library compounds to Bcl-2 using AS-MS (affinity selection mass spectrometry)
Method in brief: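 Pooled library of ~1200 compounds ([…] each, final) incubated with recombinant human Bcl-2 (20 μM final) in Tris-HCl pH 7.4, NaCl, Tween-20, DTT buffer, dark, 23° C., 1 h. Bound fraction recovered by SEC spin column, organic extraction, reversed-phase LC/MS. ASMS Ratio (%) = (A−C)/B×100 versus protein-free standard and SEC blank.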

T1 sequence (P10415 whole entry): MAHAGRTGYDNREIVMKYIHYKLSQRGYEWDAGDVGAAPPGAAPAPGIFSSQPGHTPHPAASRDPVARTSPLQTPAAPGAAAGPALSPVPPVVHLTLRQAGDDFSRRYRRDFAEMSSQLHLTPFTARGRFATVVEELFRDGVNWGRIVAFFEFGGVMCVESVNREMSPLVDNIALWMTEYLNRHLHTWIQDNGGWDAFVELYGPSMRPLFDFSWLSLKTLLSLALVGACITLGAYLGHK

| ASMS ratio (%) (n = 1) | ASMS ratio (%) (n = 2) | Structure (SMILES) |
| --- | --- | --- |
| 0.0% | 0.0% | CCOc1cncc(C#Cc2cncc(C(=O)N3CCN(c4ccc(C(=O)NS(=O)(=O)CCC(F)(F)F)nn4)CC3)c2)c1 [B2N010-01, 6-[4-[5-[2-(5-Ethoxypyridin-3-yl)ethynyl]pyridine-3-carbonyl]piperazin-1-yl]-N-(3,3,3-trifluoropropylsulfonyl)pyridazine-3-carboxamide] |
| 0.0% | 0.0% | CCOc1cccc(-c2ccccc2CCC(=O)N2CCN(c3ccc(C(=O)NS(=O)(=O)CCC(F)(F)F)nn3)CC2)c1 [B2N011-01, 6-[4-[3-[2-(3-Ethoxyphenyl)phenyl]propanoyl]piperazin-1-yl]-N-(3,3,3-trifluoropropylsulfonyl)pyridazine-3-carboxamide] |
| 0.0% | 0.0% | CCOc1cncc(-c2ccccc2CCC(=O)N2CCN(c3ccc(C(=O)NS(=O)(=O)CCC(F)(F)F)nn3)CC2)c1 [B2N012-01, 6-[4-[3-[2-(5-Ethoxypyridin-3-yl)phenyl]propanoyl]piperazin-1-yl]-N-(3,3,3-trifluoropropylsulfonyl)pyridazine-3-carboxamide] |
| 0.0% | 0.0% | CCOc1cccc(-c2ccc(C(=O)N3CCN(c4ccc(C(=O)NS(=O)(=O)CCC(F)(F)F)nn4)CC3)c3ccccc23)c1 [B2N013-01, 6-[4-[4-(3-Ethoxyphenyl)naphthalene-1-carbonyl]piperazin-1-yl]-N-(3,3,3-trifluoropropylsulfonyl)pyridazine-3-carboxamide] |
| 0.0% | 0.0% | CCOc1cncc(-c2ccc(C(=O)N3CCN(c4ccc(C(=O)NS(=O)(=O)CCC(F)(F)F)nn4)CC3)c3ccccc23)c1 [B2N014-01, 6-[4-[4-(5-Ethoxypyridin-3-yl)naphthalene-1-carbonyl]piperazin-1-yl]-N-(3,3,3-trifluoropropylsulfonyl)pyridazine-3-carboxamide] |
| 0.0% | 0.0% | CCOc1cncc(-c2cc(C(=O)N3CCN(c4ccc(C(=O)NS(=O)(=O)CCC(F)(F)F)nn4)CC3)cc(C(C)(C)C)c2)c1 [B2N016-01, 6-[4-[3-tert-Butyl-5-(5-ethoxypyridin-3-yl)benzoyl]piperazin-1-yl]-N-(3,3,3-trifluoropropylsulfonyl)pyridazine-3-carboxamide] |
| 0.0% | 1.0% | CCOc1cncc(-c2cc(C(=O)N3CCN(c4ccc(C(=O)NS(=O)(=O)CCC(F)(F)F)nn4)CC3)cc(C(F)(F)F)c2)c1 [B2N018-01, 6-[4-[3-(5-Ethoxypyridin-3-yl)-5-(trifluoromethyl)benzoyl]piperazin-1-yl]-N-(3,3,3-trifluoropropylsulfonyl)pyridazine-3-carboxamide] |
| 0.0% | 0.0% | CCOc1cncc(C#Cc2cc(C(=O)N3CCN(c4ccc(C(=O)NS(=O)(=O)CCC(F)(F)F)nn4)CC3)cc(C(F)(F)F)c2)c1 [B2N020-01, 6-[4-[3-[2-(5-Ethoxypyridin-3-yl)ethynyl]-5-(trifluoromethyl)benzoyl]piperazin-1-yl]-N-(3,3,3-trifluoropropylsulfonyl)pyridazine-3-carboxamide] |
|  | 0.0% | CCOc1cccc(-c2cnn(-c3cc(C(=O)N4CCN(c5ccc(C(=O)NS(=O)(=O)CCC(F)(F)F)nn5)CC4)cc(C(F)(F)F)c3)c2)c1 [B2N021-01, 6-[4-[3-[4-(3-Ethoxyphenyl)pyrazol-1-yl]-5-(trifluoromethyl)benzoyl]piperazin-1-yl]-N-(3,3,3-trifluoropropylsulfonyl)pyridazine-3-carboxamide] |
| 0.0% | 0.0% | CCOc1cncc(-c2cnn(-c3cc(C(=O)N4CCN(c5ccc(C(=O)NS(=O)(=O)CCC(F)(F)F)nn5)CC4)cc(C(F)(F)F)c3)c2)c1 [B2N022-01, 6-[4-[3-[4-(5-Ethoxypyridin-3-yl)pyrazol-1-yl]-5-(trifluoromethyl)benzoyl]piperazin-1-yl]-N-(3,3,3-trifluoropropylsulfonyl)pyridazine-3-carboxamide] |
| 0.0% | 0.0% | CCOc1cccc(-c2csc(C(=O)N3CCN(c4ccc(C(=O)NS(=O)(=O)CCC(F)(F)F)cc4)CC3)c2)c1 [B2N023-01, 4-[4-[4-(3-Ethoxyphenyl)thiophene-2-carbonyl]piperazin-1-yl]-N-(3,3,3-trifluoropropylsulfonyl)benzamide] |
| 0.0% | 0.0% | CCOc1cncc(-c2csc(C(=O)N3CCN(c4ccc(C(=O)NS(=O)(=O)CCC(F)(F)F)cc4)CC3)c2)c1 [B2N024-01, 4-[4-[4-(5-Ethoxypyridin-3-yl)thiophene-2-carbonyl]piperazin-1-yl]-N-(3,3,3-trifluoropropylsulfonyl)benzamide] |
| 0.0% | 0.0% | CCOc1cccc(-c2ccc(C(=O)N3CCN(c4ccc(C(=O)NS(=O)(=O)CCC(F)(F)F)cc4)CC3)cc2C)c1 [B2N025-01, 4-[4-[4-(3-Ethoxyphenyl)-3-methylbenzoyl]piperazin-1-yl]-N-(3,3,3-trifluoropropylsulfonyl)benzamide] |
| −1.5% | −0.7% | CCOc1cncc(-c2ccc(C(=O)N3CCN(c4ccc(C(=O)NS(=O)(=O)CCC(F)(F)F)cc4)CC3)cc2C)c1 [B2N026-01, 4-[4-[4-(5-Ethoxypyridin-3-yl)-3-methylbenzoyl]piperazin-1-yl]-N-(3,3,3-trifluoropropylsulfonyl)benzamide] |
| −0.7% | −0.9% | CCOc1cncc(-c2ccc(C(=O)N3CCN(c4ccc(C(=O)NS(=O)(=O)CCC(F)(F)F)cc4)CC3)cc2F)c1 [B2N028-01, 4-[4-[4-(5-Ethoxypyridin-3-yl)-3-fluorobenzoyl]piperazin-1-yl]-N-(3,3,3-trifluoropropylsulfonyl)benzamide] |
| 0.0% | 0.0% | CCOc1cncc(C#Cc2ccccc2C(=O)N2CCN(c3ccc(C(=O)NS(=O)(=O)CCC(F)(F)F)cc3)CC2)c1 [B2N030-01, 4-[4-[2-[2-(5-Ethoxypyridin-3-yl)ethynyl]benzoyl]piperazin-1-yl]-N-(3,3,3-trifluoropropylsulfonyl)benzamide] |
| 0.0% | 0.0% | CCOc1cccc(C#Cc2cncc(C(=O)N3CCN(c4ccc(C(=O)NS(=O)(=O)CCC(F)(F)F)cc4)CC3)c2)c1 [B2N031-01, 4-[4-[5-[2-(3-Ethoxyphenyl)ethynyl]pyridine-3-carbonyl]piperazin-1-yl]-N-(3,3,3-trifluoropropylsulfonyl)benzamide] |
| −0.4% | −1.0% | CCOc1cncc(C#Cc2cncc(C(=O)N3CCN(c4ccc(C(=O)NS(=O)(=O)CCC(F)(F)F)cc4)CC3)c2)c1 [B2N032-01, 4-[4-[5-[2-(5-Ethoxypyridin-3-yl)ethynyl]pyridine-3-carbonyl]piperazin-1-yl]-N-(3,3,3-trifluoropropylsulfonyl)benzamide] |
| 0.0% | 0.0% | CCOc1cccc(-c2ccccc2CCC(=O)N2CCN(c3ccc(C(=O)NS(=O)(=O)CCC(F)(F)F)cc3)CC2)c1 [B2N033-01, 4-[4-[3-[2-(3-Ethoxyphenyl)phenyl]propanoyl]piperazin-1-yl]-N-(3,3,3-trifluoropropylsulfonyl)benzamide] |
| −0.2% | 1.0% | CCOc1cncc(-c2ccccc2CCC(=O)N2CCN(c3ccc(C(=O)NS(=O)(=O)CCC(F)(F)F)cc3)CC2)c1 [B2N034-01, 4-[4-[3-[2-(5-Ethoxypyridin-3-yl)phenyl]propanoyl]piperazin-1-yl]-N-(3,3,3-trifluoropropylsulfonyl)benzamide] |
| 0.0% | 0.0% | CCOc1cccc(-c2ccc(C(=O)N3CCN(c4ccc(C(=O)NS(=O)(=O)CCC(F)(F)F)cc4)CC3)c3ccccc23)c1 [B2N035-01, 4-[4-[4-(3-Ethoxyphenyl)naphthalene-1-carbonyl]piperazin-1-yl]-N-(3,3,3-trifluoropropylsulfonyl)benzamide] |
| 0.0% | 0.4% | CCOc1cncc(-c2ccc(C(=O)N3CCN(c4ccc(C(=O)NS(=O)(=O)CCC(F)(F)F)cc4)CC3)c3ccccc23)c1 [B2N036-01, 4-[4-[4-(5-Ethoxypyridin-3-yl)naphthalene-1-carbonyl]piperazin-1-yl]-N-(3,3,3-trifluoropropylsulfonyl)benzamide] |
| 0.0% | 0.0% | CCOc1cccc(-c2cc(C(=O)N3CCN(c4ccc(C(=O)NS(=O)(=O)CCC(F)(F)F)cc4)CC3)cc(C(C)(C)C)c2)c1 [B2N037-01, 4-[4-[3-tert-Butyl-5-(3-ethoxyphenyl)benzoyl]piperazin-1-yl]-N-(3,3,3-trifluoropropylsulfonyl)benzamide] |
| 0.0% | 0.0% | CCOc1cncc(-c2cc(C(=O)N3CCN(c4ccc(C(=O)NS(=O)(=O)CCC(F)(F)F)cc4)CC3)cc(C(C)(C)C)c2)c1 [B2N038-01, 4-[4-[3-tert-Butyl-5-(5-ethoxypyridin-3-yl)benzoyl]piperazin-1-yl]-N-(3,3,3-trifluoropropylsulfonyl)benzamide] |
| 0.0% | 0.0% | CCOc1cncc(-c2cc(C(=O)N3CCN(c4ccc(C(=O)NS(=O)(=O)CCC(F)(F)F)cc4)CC3)cc(C(F)(F)F)c2)c1 [B2N040-01, 4-[4-[3-(5-Ethoxypyridin-3-yl)-5-(trifluoromethyl)benzoyl]piperazin-1-yl]-N-(3,3,3-trifluoropropylsulfonyl)benzamide] |
| 0.0% | 0.0% | CCOc1cncc(C#Cc2cc(C(=O)N3CCN(c4ccc(C(=O)NS(=O)(=O)CCC(F)(F)F)cc4)CC3)cc(C(F)(F)F)c2)c1 [B2N042-01, 4-[4-[3-[2-(5-Ethoxypyridin-3-yl)ethynyl]-5-(trifluoromethyl)benzoyl]piperazin-1-yl]-N-(3,3,3-trifluoropropylsulfonyl)benzamide] |
